From patent US20240228488A1 (TAKEDA PHARMACEUTICAL COMPANY LIMITED, priority 2021, published 2024)

Target: human activated kallikrein enzyme (Homo sapiens, UniProt P03952)
Test: Plasma kallikrein inhibition, fluorogenic PFR-AMC substrate, 500 pM activated kallikrein format
Assay type: biochemical
Conditions: 500 pM activated kallikrein, 300 uM PFR-AMC, 30 min preincubation, 10 min reaction; read-out: Primary Dose Response Assay: Average EC50
Procedure, shortened: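 High-enzyme format of the fluorogenic peptide assay, with EC50 taken from AMC signal: 500 pM activated kallikrein, 300 uM Pro-Phe-Arg-AMC, 30 min compound preincubation and 10 min reaction, all at room temperature, pH 7.5.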

human activated kallikrein enzyme, sequence (P03952 391-638 limits assumed): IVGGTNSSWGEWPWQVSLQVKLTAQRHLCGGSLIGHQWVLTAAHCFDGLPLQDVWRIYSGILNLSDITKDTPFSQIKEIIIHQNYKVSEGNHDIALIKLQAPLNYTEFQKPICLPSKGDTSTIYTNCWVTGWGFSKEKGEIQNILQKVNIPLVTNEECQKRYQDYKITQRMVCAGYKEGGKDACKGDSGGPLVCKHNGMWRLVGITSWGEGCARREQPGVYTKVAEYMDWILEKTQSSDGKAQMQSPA
human activated kallikrein enzyme, sequence (P03952 20-390 partner limits assumed): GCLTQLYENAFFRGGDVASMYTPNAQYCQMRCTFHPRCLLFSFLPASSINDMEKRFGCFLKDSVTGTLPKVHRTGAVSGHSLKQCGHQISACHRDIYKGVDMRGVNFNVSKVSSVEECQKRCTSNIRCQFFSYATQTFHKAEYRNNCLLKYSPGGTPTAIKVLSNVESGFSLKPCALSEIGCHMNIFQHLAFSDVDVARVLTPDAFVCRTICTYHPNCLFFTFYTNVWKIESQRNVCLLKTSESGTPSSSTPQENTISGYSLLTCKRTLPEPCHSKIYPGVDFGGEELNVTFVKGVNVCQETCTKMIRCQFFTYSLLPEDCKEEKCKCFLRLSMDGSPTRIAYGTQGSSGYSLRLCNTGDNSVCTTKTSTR

EC50 [µM]	Compound
0.001 to 0.01	O=C(Nc1nccc2nn(Cc3cn4cc(C5CC5)ccc4n3)cc12)[C@H]1C[C@@H]1c1cccc(Cl)c1 [Example 580, (1S,2S)-2-(3-chlorophenyl)-N-(2-((6-cyclopropylimidazo[1,2-a]pyridin-2-yl)methyl)-2H-pyrazolo[4,3-c]pyridin-4-yl)cyclopropane-1-carboxamide]
0.01 to 0.1	O=C(Nc1cc(NCc2cn3cc(C4CC4)cc(OCc4ccccc4)c3n2)ncn1)[C@H]1C[C@@H]1c1cccc(Cl)c1 [Example I-148, (1S,2S)-N-(6-(((8-(benzyloxy)-6-cyclopropylimidazo[1,2-a]pyridin-2-yl)methyl)amino)pyrimidin-4-yl)-2-(3-chlorophenyl)cyclopropane-1-carboxamide]
0.01 to 0.1	O=C(NCc1cn(Cc2cn3cc(C4CC4)ccc3n2)nn1)[C@H]1C[C@@H]1c1cccc(Cl)c1 (racemic) [Example 588, rac-(1S*,2S*)-2-(3-chlorophenyl)-N-((1-((6-cyclopropylimidazo[1,2-a]pyridin-2-yl)methyl)-1H-1,2,3-triazol-4-yl)methyl)cyclopropane-1-carboxamide]
< 0.001	CNc1nnc(NC(=O)[C@H]2C[C@@H]2c2nccc(C)n2)cc1OCc1cn2cc(C3CC3)cc(N3CC(=O)N(C)C3=O)c2n1 [Example 670, (1S,2S)—N-(5-((6-cyclopropyl-8-(3-methyl-2,4-dioxoimidazolidin-1-yl)imidazo[1,2-a]pyridin-2-yl)methoxy)-6-(methylamino)pyridazin-3-yl)-2-(4-methylpyrimidin-2-yl)cyclopropane-1-carboxamide]
< 0.001	Cc1ccnc([C@H]2C[C@@H]2C(=O)Nc2nccn3nc(Cc4cn5cc(C6CC6)cc(N6CC(=O)N(C)C6=O)c5n4)cc23)n1 [Example I-649, (1S,2S)—N-(2-((6-cyclopropyl-8-(3-methyl-2,4-dioxoimidazolidin-1-yl)imidazo[1,2-a]pyridin-2-yl)methyl)pyrazolo[1,5-a]pyrazin-4-yl)-2-(4-methylpyrimidin-2-yl)cyclopropane-1-carboxamide]
< 0.001	Cc1ccnc([C@H]2C[C@@H]2C(=O)Nc2ccc(C#N)c(OCc3cn4cc(C5CC5)cc(N5CC(=O)N(C)C5=O)c4n3)c2)n1 [Example 669, (1S,2S)—N-(4-cyano-3-((6-cyclopropyl-8-(3-methyl-2,4-dioxoimidazolidin-1-yl)imidazo[1,2-a]pyridin-2-yl)methoxy)phenyl)-2-(4-methylpyrimidin-2-yl)cyclopropane-1-carboxamide]
0.001 to 0.01	O=C(Nc1cc(NCc2cn3cc(Cl)ccc3n2)ccn1)[C@H]1C[C@@H]1c1cccc(Cl)c1 [Example I-253, (1S,2S)-N-(4-(((6-chloroimidazo[1,2-a]pyridin-2-yl)methyl)amino)pyridin-2-yl)-2-(3-chlorophenyl)cyclopropane-1-carboxamide]
0.001 to 0.01	O=C(Nc1cc(NCc2cn3cc(C4CC4)cc(N4CCN(CC(F)(F)F)CC4)c3n2)ccn1)[C@H]1C[C@@H]1c1cccc(Cl)c1 (racemic) [Example I-20]
0.01 to 0.1	O=C(Nc1ccnc(NCc2cn3cc(C4CC4)ccc3n2)n1)[C@H]1C[C@@H]1c1cccc(Cl)c1 (racemic) [Example 347, (rac-(1S*,2S*))-2-(3-chlorophenyl)-N-(2-(((6-cyclopropylimidazo[1,2-a]pyridin-2-yl)methyl)amino)pyrimidin-4-yl)cyclopropane-1-carboxamide]
< 0.001	O=C(Nc1cc(NCc2cn3cc(C4CC4)cc(CO)c3n2)ccn1)[C@H]1C[C@@H]1c1cccc(Cl)c1 (racemic) [Example 98, rac-(1S*,2S*)-2-(3-chlorophenyl)-N-(4-(((6-cyclopropyl-8-(hydroxymethyl)imidazo[1,2-a]pyridin-2-yl)methyl)amino)pyridin-2-yl)cyclopropane-1-carboxamide]
